The source of these data is patent publication US20180344637A1, “WATER SOLUBLE MICELLAR DRUG DELIVERY AGENTS” (Wayne State University, priority 2015, published 2018).

≈ marks a conversion by molar mass, not a printed value.

Data set [1] concerns CD44+ cells (CD44+/CD133+/EpCAM+ CSLCs from MiaPaCa-2). The data set is described as follows: MTT assay on CD44+ versus CD44− pancreatic cancer cells. The class given is cell-based, human. As to conditions: 72 h. The method, then:
The CSLCs (triple-marker positive; CD44+/CD133+/EpCAM+) and triple-marker negative (CD44−/CD133−/EpCAM−) cells were isolated from human pancreatic MiaPaCa-2 cells, by fluorescence-activated cell sorting (FACS) technique. The postsorted cells were subsequently maintained in 5% FBS-DMEM media at 37° C. under standard culture conditions.
Triple-marker positive (CD44+/CD133+/EpCAM+) CSLCs and triple-marker-negative (CD44−/CD133−/EpCAM−) cells were isolated and cultured as described in above and seeded in a 96-well culture plate, and subsequently free CDF, HA-SMA, nontargeted (SMA-CDF), and targeted (HA-SMA-CDF) nanomicelles were applied 24 h after seeding as a freshly prepared solution in DMSO diluted with PBS (pH 7.4) at between 250 to 750 nM concentration, MTT reagent was added and the absorbance measured at 595 nm using an Ultramultifunctional Microplate Reader ([…], Switzerland), and percent cell viability was determined by comparing the values with appropriate controls.

The subject of data set [2] is MiaPaCa-2 cells. The data set is described as follows: In vitro MTT cytotoxicity assay. To be noted: 72 h. It counts as cell-based, human. The procedure: (§1) Human pancreatic cancer cell lines MiaPaCa-2 and AsPC-1 were used. Both cell lines were maintained in Dulbecco's Modified Eagle's Medium (DMEM; Invitrogen), supplemented with 5% FBS, 2 mmol/L glutamine, 50 units/mL penicillin, and 50 μg/mL streptomycin under standard culture conditions. The cell lines have been tested and authenticated in the core facility of Applied Genomics Technology Center at Wayne State University. The method used for testing was short tandem repeat profiling using the PowerPlex 16 System from Promega.
(§2) The in vitro cytotoxicity of free CDF, CUR, SMA and micelles was evaluated by MTT cytotoxicity assay based on measurement of the activity of enzymes present in live cells that reduces MTT to give a purple color. Cells were seeded in a 96-well culture plate and the formulations were applied 24 h after seeding as freshly prepared solutions in PBS (pH 7.4) using between 100 to 1000 nM concentrations of the test agents. MTT (0.5 mg/ml) was added at the end of treatment (72 h) and plates incubated at 37° C. for 2 h, followed by replacement of media with DMSO at room temperature for 30 min and absorbance were measured at 590 nm using Ultra Multi-functional Micro plate Reader (TECAN).
In general terms: Tetrazolium dyes change colour on reduction, which living cells bring about.

Another data set concerns AsPC-1 cells. Nature of the data set: In vitro MTT cytotoxicity assay. The class given is cell-based, human. To be noted: 72 h. The procedure:
as §1, §2

The subject of data set [3] is MiaPaCa-2 cells. Nature of the data set: MTT assay before and after HA receptor blockade. The class given is cell-based, human. To be noted: MiaPaCa-2, 72 h. The text has this:
FIG. 13(c) and FIG. 13(d) show comparisons of percent cell viability of different formulations before and after HA receptor blockade.

The test system of another data set is CD44. The data set is described as follows: Western blot analysis of CD44 expression. It counts as cell-based, human. As to conditions: 250 nM, 48 h, triple marker positive CSLCs, versus untreated and HA-SMA controls. The procedure:
Triple marker positive CSLCs derived from MiaPaCa-2 were plated and allowed to attach for 36 h. CDF loaded formulations were directly added to cell cultures at 250 nM concentration and incubated for 48 h. Untreated (control) and HASMA treated (control) cells were incubated in the medium containing an equivalent concentration of PBS. After incubation, the cells were collected in PBS, and whole cell lysate was prepared by suspending the cells in 150 μL of lysis buffer [1 mol/L Tris-HCl (pH 7.5), 150 mmol/L NaCl, 1 mmol/L EDTA, 0.1% Triton X-100, 0.1 mmol/L sodium orthovanadate, 1 mmol/L phenylmethylsulfonyl fluoride ([…]), and 2 μg/mL leupeptin and 2μg,/mL aprotinin] lysed, and centrifuged. The cells were disrupted by sonication (Branson Ultrasonics, Danbury, Conn.), and the total protein content was determined by bicinchoninic acid (BCA) assay. For immunoblotting, 30 μg of total proteins was separated on SDS-PAGE, electro-transferred onto nitrocellulose membranes, and probed with specific antibodies ([…], MA). Detection of specific proteins was carried out with an enhanced chemiluminescence western blotting kit according to the manufacturer's instructions (Life Technologies, Waltham, Mass.).
(A western blot detects proteins with antibodies after separation by electrophoresis.)

The conditions of data set [4]: cited from earlier work.

Take `COc1cc(/C=C/C(=O)C(=Cc2ccc(F)c(F)c2)C(=O)/C=C/c2ccc(O)c(OC)c2)ccc1O` [CDF, curcumin difluorinated]: the IC50 in data set [1] came to 410 ± 3.64 nM; in the data set with MiaPaCa-2 cells [2] (MiaPaCa-2 cells), 400 ± 4.53 nM; in the data set with AsPC-1 cells it was 810 ± 1.51 nM; with MiaPaCa-2 cells [3] (after receptor blockade using free soluble HA), 473 ± 8.69 nM; in the data set on MiaPaCa-2 cells [3] (before the blockade of HA receptors), 465 ± 7.34 nM. The cell viability in the data set with MiaPaCa-2 cells [2] (1000 nM CDF equivalent concentration, MiaPaCa-2) came to 28.47±2.29%. Further, the “anticancer activity compared to free CMN (in words)” value in the data set on MiaPaCa-2 cells [2] (MTT) is “significantly improved anticancer activity”. Also, the “expression of CD44 levels (in words)” value in the data set with CD44 is recorded as “marked reduction”. Moreover, the water solubility in data set [4] (free form) is 0.6 µg/mL (≈ 1.22 µM).
On to `CC(=O)O[C@@]12CO[C@@H]1C[C@H](O)[C@@]1(C)C(=O)[C@H](O)C3=C(C)[C@@H](OC(=O)[C@H](O)[C@@H](NC(=O)OC(C)(C)C)c4ccccc4)C[C@@](O)([C@@H](OC(=O)c4ccccc4)[C@H]21)C3(C)C` [Docetaxel, docetaxel], for which the “water solubility (estimated)” value in data set [4] was 10 to 20 µM.
In the case of `CC(=O)O[C@H]1C(=O)[C@@]2(C)[C@H]([C@H](OC(=O)c3ccccc3)[C@]3(O)C[C@H](OC(=O)[C@H](O)[C@@H](NC(=O)c4ccccc4)c4ccccc4)C(C)=C1C3(C)C)[C@]1(OC(C)=O)CO[C@@H]1C[C@@H]2O` [Paclitaxel, paclitaxel], in data set [4], the “water solubility (estimated)” value is 10 to 20 µM.

What is called IC50 is the midpoint of a concentration-inhibition curve. A higher IC50 goes with lower potency. The term cell viability denotes a per cent measure of how many cells are alive, often set against a control.
